US5844000A, “Propenone oxime ethers and pharmaceutical compositions containing them” (Sanofi, priority 1997, dated 1998)
Entries after “also recorded” stand apart in the source; their conditions may differ.

Columns and labels:
[1] = Biotransformation: excreted radioactivity (urine and feces) as SR 46349 and metabolites in humans; assay type: in vivo, human; conditions: for percentage of excreted radioactivity: urine and feces, excreted (recovered) radioactivity
Experimental: Excretion-balance, plasma and blood pharmacokinetics of radioactivity, and clinical safety/tolerance were reported.
The capsule was dropped directly in the mouth and swallowed with 150 mL of tap water at about 8:00 AM. Ingestion of the capsule was verified by inspection of the oral cavity of each subject.
A representative pool of urine was prepared for each subject by mixing aliquots from each collection interval in proportion to the percent of radioactivity present in each collection interval.
A representative pool of fecal homogenate was prepared for each subject by mixing aliquots from each collection interval in proportion to the percent of radioactivity present in each collection interval.
(§1) Metabolite quantitation was conducted with an HP1090 HPLC system (Hewlett Packard, Wilmington, Del. HPLC eluant was fraction collected (0.33 mL/fraction using a FOXY™ Model 200 fraction collector; Isco, Lincoln, Nebr.). Fractions were mixed with 5 mL of Biofluor cocktail and then counted using a Tri-Carb 2700TR liquid scintillation counter (Packard, Meriden, Conn.).
Sample extraction and HPLC column recoveries were calculated using measured radioactivity in samples, sample extracts and HPLC eluants. Recoveries of 100% were based on the expected amount of radioactivity in a sample prior to extraction or HPLC analysis.
Urinary and fecal metabolites are expressed as a percentage of the radioactivity in each matrix and as a percentage of excreted (recovered) radioactivity. Values were corrected for total experimental recoveries.

5-HT2 = conditions: result in words; U.S. Pat. No. 5,166,416; cited from earlier work
[2] = Plasma metabolite profiling in humans; assay type: in vivo, human; conditions: result in words; time points up to 48 hr
Experimental: (§2) The objective of this study was to quantitate the biotransformation of ^14 C-SR 46349B in humans. Six healthy male volunteers were treated orally with a single 30 mg dose of ^14 C-SR 46349B (corresponding to 35.4 mg of the salified compound), labeled on the C-1 position of the propenyl chain with ^14 C (1.375 MBq). Excretion-balance, plasma and blood pharmacokinetics of radioactivity, and clinical safety/tolerance were reported. Plasma, urine and fecal homogenates were analyzed for quantitation and identification of SR 46349B and metabolites.
Subjects were fasted overnight prior to the morning of ^14 C-SR 46349B administration. […]
Pools of plasma for each collection time were prepared by mixing equal amounts of plasma from all subjects. This made available enough plasma at each time point to quantitate metabolites. […] Due to low amounts of radioactivity in plasma, five concentrated extracts from the same time point were combined. […] Pools for each collection time were analyzed in triplicate.
as §1, with “Conn.). […]” for “Conn.).”

[3] = Human pharmacokinetics: plasma concentration of SR 46349 (HPLC-UV) after single oral dose of 14C-SR 46349B; assay type: in vivo
Experimental: as §2
(§3) Subjects were fasted overnight prior to the morning of ^14 C-SR 46349B administration. All subjects received a single oral 30 mg dose of ^14 C-SR 46349B (corresponding to 35.4 mg of the […] compound) in a single gelatin capsule. The capsule was dropped directly in the mouth and swallowed with 150 mL of tap water at about 8:00 AM. Ingestion of the capsule was verified by inspection of the oral cavity of each subject.
(§4) Blood samples were obtained at 0, 0.5, 1, 1.5, 2, 2.5, 3, 4, 6, 8, 10, 12, 16, 24, 36, 48, 72, 96, 120, 144, 168, 192, 216, 240, 264, 288 and 312 hr after dosing. For each sample, approximately 7 mL of blood (22 mL at 2, 3, 4, 8, 12, 24 and 48 hrs after dosing) was drawn into polypropylene collection tubes containing lithium heparin (as an anticoagulant). Following the removal of 1 mL of blood for radiocarbon analysis, samples were centrifuged (within 30 min) at 2000-3000×g for 10 min and the plasma transferred into polypropylene transport tubes. All samples were stored frozen (≤-18° C.) until analysis.
The concentration of SR 46349 in plasma samples was determined using a validated HPLC method with UV detection at 320 nm. […] The samples were dried at room temperature and resuspended in 0.15 mL of mobile phase and 0.05 mL was analyzed. […]
Unknown concentrations of SR 46349 were quantified by reference to a 1/y^2 weighted regression analysis of the peak-area ratio (SR 46349/internal standard) versus concentration of the calibration curve standards. […]
Model-independent pharmacokinetic parameters for plasma concentrations of SR 46349 were calculated for each subject. The maximum observed plasma concentration (Cmax) of SR 46349 and its corresponding time (tmax) were determined by visual inspection of individual concentration-time profiles. Half-life (t 1/2) was calculated from the ratio of ln(2)/λZ, where λZ is the regressed slope of the terminal phase. The area under the plasma concentration of SR 46349-versus-time-curves (AUC(0-t)) was calculated using the trapezoidal rule. AUC was calculated for the sum of AUC(0-t) and Cp(1)/λZ wherein Cp(1) is the last measurable concentration time point. […]

[4] = Fecal excretion and fecal metabolite profiling in humans; assay type: in vivo, human; conditions: up to 276 hr post-dose, % of administered dose
Experimental: as §2
(§5) Subjects were fasted overnight prior to the morning of ^14 C-SR 46349B administration. All subjects received a single oral 30 mg dose of ^14 C-SR 46349B (corresponding to 35.4 mg of the unsalified compound) in a single gelatin capsule. […]
(§6) Aliquots of plasma and urine samples were added directly to Ready-Safe scintillant (9 mL), hand shaken for a few seconds and left for at least 2 hours prior to counting. […] Radioactivity assays were performed with a Packard Instruments Tri-Carb, Model 1600TR Liquid Scintillation System. […]
A representative pool of fecal homogenate was prepared for each subject by mixing aliquots from each collection interval in proportion to the percent of radioactivity present in each collection interval. Pools were prepared to represent approximately 95% of total collected fecal radioactivity. […]

[5] = Urinary excretion and urinary metabolite profiling in humans; assay type: in vivo, human; conditions: up to 336 hr post-dose, % of administered dose
Experimental: as §2, §5, §6
A representative pool of urine was prepared for each subject by mixing aliquots from each collection interval in proportion to the percent of radioactivity present in each collection interval. Pools were prepared to represent approximately 95% of total collected urinary radioactivity. […]

[6] = Human pharmacokinetics: plasma radioactivity after single oral dose of 14C-SR 46349B; assay type: in vivo
Experimental: as §2, §3, §4
Aliquots of plasma and urine samples were added directly to Ready-Safe scintillant (9 mL), hand shaken for a few seconds and left for at least 2 hours prior to counting. Aliquots of fecal homogenates were weighed in a Combusto-Cone fitted with a CombustoPad. The samples were allowed to dry overnight before combustion in a Packard Sample Oxidizer, Model 307 (Meriden, Conn.). Carbo-Sorb and Permafluor E^+ were used as scintillants (10 mL). Samples mixed with scintillant were left for at least 4 hours prior to counting. Radioactivity assays were performed with a Packard Instruments Tri-Carb, Model 1600TR Liquid Scintillation System. The LOQ was set at 12 cpm above background.

C[N+](C)([O-])CCON=C(/C=C/c1ccc(O)cc1)c1ccccc1F [H22 & H23]
percentage of excreted radioactivity [1]: approximately 23%

CN(C)CCON=C(/C=C/c1ccc(O)cc1)c1ccccc1F [SR 46349B, Trans 1-N,N-dimethylaminoethoxyimino 1-(2-fluorophenyl)-3-(4-hydroxyphenyl)2-propene hemifumarate]
5-HT2 antagonist activity (5-HT2): potent 5-HT2 antagonist
plasma concentration compared with any single metabolite [2]: higher than any single metabolite, except at the 48 hr time point

CN(C)CCON=C(/C=C/c1ccc(O)cc1)c1ccccc1F [SR 46349]
plasma concentration compared with any single metabolite [2]: always higher than any individual metabolite
extent and pathways of metabolism ([1]; result in words, human): extensively metabolized; also recorded: N-oxidation, N-demethylation, sulfation and glucuronidation; also recorded: oxidation of SR 46349 (N-oxidation and N-demethylation) appears to be the major mechanism of metabolic clearance
percentage of excreted radioactivity [1]: approximately 6%
half-life ([3]; human, po, 30 mg, single oral 30 mg, mean (±SD), read-out: terminal elimination half-life of SR 46349 (converted)): ~23 h
Cmax ([3]; human, single oral 30 mg 14C-SR 46349B, healthy male volunteers, capsule, fasted, read-out: Cmax of SR 46349 in plasma, mean (±SD)): 50 ng/mL
AUC ([3]; human, single oral 30 mg, read-out: mean plasma AUC for SR 46349 (±SD), as restated in the discussion): 1200 ng·h/mL
terminal elimination half-life of SR 46349 ([3]; single oral 30 mg, mean (±SD)): 22.9 (±7.3) hr

CN(C)CCO/N=[14C](/C=C/c1ccc(O)cc1)c1ccccc1F [^14 C-SR 46349B]
cumulative fecal excretion of radioactivity, mean (±SD) [4]: 21.6 (±3.5) %
cumulative fecal excretion of radioactivity, range ([4]; range over subjects): 16.4 to 26.5%
cumulative urinary excretion of radioactivity, mean (±SD) [5]: 70.3 (±4.6) %
cumulative urinary excretion of radioactivity, range ([5]; range over subjects): 63.1 to 77.1%
maximal plasma concentrations of radioactivity relative to plasma concentrations of SR 46349 ([6]; at similar tmax values, radioactivity / SR 46349): approximately 3 times
AUC of plasma radioactivity relative to mean plasma AUC for SR 46349 ([6]; radioactivity / SR 46349): approximately 11 times
Cmax of plasma radioactivity, mean (±SD) ([6]; single oral 30 mg 14C-SR 46349B, total radioactivity): 0.16 (±0.02) mg eq/L
AUC of plasma radioactivity, mean (±SD) ([6]; single oral 30 mg, total radioactivity): 13.7 (±2. 1) mg eq.circle-solid.hr/L
